# Experimental data as given in article PMC12264554, “Application of preclinical absorption, distribution, metabolism, elimination in vitro techniques for the characterization and compound library optimization of novel antibiotic gallium salophen” (Drug Metabolism and Disposition, 2025).
# Assays:
# HasA = HasA (Pseudomonas aeruginosa, UniProt G3XD33); assay: Kd determination by fluorescence quenching of apo-HasAp; settings: read-out: HasA Kd; apo-HasAp 1 μM, 20 mM sodium phosphate pH 7.4, 25 °C, one-site binding fit
# Procedure: Wild-type, full-length HasAp was prepared from freshly transformed Escherichia coli BL21(DE3) competent cells as previously described in 4 L of M9 media. Cell pellets were resuspended and lysed with an LM-20 microfluidizer at 18,000 psi. Lysate was clarified by centrifugation and applied to a Q-Sepharose column. HasAp was eluted over a gradient from 20 to 600 mM NaCl in 20 mM Tris-HCl (pH 7.5), and desired fractions determined by SDS-PAGE were pooled. Apo-HasAp was further purified on a Butyl Sepharose Fast Flow column equilibrated with 50 mM sodium phosphate buffer with 0.7 M ammonium sulfate (pH 7.0). Holo-HasAp and other proteins eluted within 2–3 bed volumes of 50 mM sodium phosphate containing 0.5 M ammonium sulfate. Apo-HasAp was then eluted with a linear gradient of sodium phosphate buffer (50–20 mM) containing ammonium sulfate (0.5–0 M). Fractions were analyzed again by SDS-PAGE, and the apo-HasAp was pooled, concentrated (Amicon stirred cell with Ultracel 10 kDa filter), and exchanged into 20 mM sodium phosphate buffer.
# Binding affinities were determined using a BioTek Synergy H1 microplate reader in a black 96-well plate. Compounds were solvated in H2O in serial dilutions (100–0.39 μM). One micromolar solution of apo-HasAp 20 mM sodium phosphate buffer (pH 7.4, 25 °C) was titrated into the ligand of interest. Emission spectra were recorded (300–500 nm) after excitation at 280 nm. The decrease in maximum emission was plotted against the ligand concentration (accounting for dilution) and fit to one-site binding using GraphPad Prism v10.
# [1] = RBC/PL partitioning equilibrium in whole blood; settings: for ICP-MS calculated KRBC/PL / LC-MS/MS calculated KRBC/PL: sodium heparin whole blood, 6 selectivity lots; for KRBC/PL: K2EDTA whole blood
# Procedure: The mixtures were digested at 80 °C for 4 hours and further diluted to a concentration of 6% nitric acid. Gallium (Ga^71) in whole blood, PL, and RBC samples were quantified using an Agilent 7700x ICP-MS instrument (Agilent Technologies). Metal levels were detected using an Octopole Reaction System in He mode. Other ICP-MS parameters include an radio frequency power of 1500 W, on octupole radio frequency of 190 V, an octapole bias of –18 V, a helium gas flow of 4.3 mL/min, and an argon flow of 0.99 L/min. Samples were loaded through a 7700X peristaltic (with a speed of 0.1 rps) and a MicroMist nebulizer. A standard calibration curve was used to derive metal concentrations. The calibration standards from 0–250 ppb were prepared in 6% nitric acid using atomic absorption standards (Sigma). Data analysis and extraction were performed using Agilent’s MassHunter software version 5.1, specifically version D.01.01.
# All LC-MS/MS grade solvents were purchased from ThermoFisher. Ammonium bicarbonate was purchased from Sigma Aldrich. Analysis was performed on a Waters I-Class ultra-performance liquid chromatography system connected with a Waters Xevo TQ-XS mass spectrometer. Ten millimolar ammonium bicarbonate, pH 9.4 was used for mobile phase A, and 100% methanol was used for mobile phase B. The column flow rate was set at 0.400 mL/min. Chromatographic separation was performed with a BEH C18 (2.1 × 50 mm, 1.7 μm) column (Waters). […] The total run time was 4 minutes. The column temperature was set to 60 °C, and the autosampler temperature was set to 15 °C. Washing parameters were 800 μL of weak needle wash (acetonitrile [ACN]:Water/50:50) and 1000 μL of strong needle wash (methanol:ACN:2-propanol:formic acid/30:30:40:0.5) after every injection. Transitions used to monitor all drugs in the study are shown in Supplemental Table 1.
# Whole blood (either potassium EDTA [K2EDTA] or sodium heparin) was preincubated at 37 °C for 30 minutes before spiking with the analyte. GaSal-5 was made at a stock concentration of 100 μg/mL in water and then spiked at a high concentration (1 μg/mL) and low concentration (100 ng/mL) to determine whether equilibrium was concentration dependent. Samples were then aliquoted and stored in a water bath at 37 °C for 1, 2, 3, 4, and 8 hours or harvested immediately. PL was harvested from samples by centrifuging at 3000 rpm at 4 °C for 10 minutes. PL was transferred to a new tube and considered the PL fraction, whereas the rest of the matrix was considered the RBC fraction. Samples were then either analyzed by LC-MS/MS or ICP-MS. […] For selectivity lot analysis, whole blood from 3 male and 3 female donors were incubated for 2 hours and then analyzed with LC-MS/MS and ICP-MS at a single concentration of 1 μg/mL. Data are presented as average ± SEM, n = 3 per sample, per concentration. Significance was determined by using a paired t test for ICP-MS and LC-MS/MS data (the same sample, different method) or a 2-tailed Student’s t test for different anticoagulants.
# [2] = 0.1 μg/mL, pooled K2EDTA whole blood, 2 hours, LC-MS/MS (ICP-MS for Ga^3+)
# [3] = 0.1 μg/mL, pooled sodium heparin whole blood, 2 hours, LC-MS/MS (ICP-MS for Ga^3+)
# [4] = 1 μg/mL, pooled K2EDTA whole blood, 2 hours, LC-MS/MS (ICP-MS for Ga^3+)
# [5] = 1 μg/mL, pooled sodium heparin whole blood, 2 hours, LC-MS/MS (ICP-MS for Ga^3+)
# [6] = 1 μg/mL, selectivity lots n = 6, LC-MS/MS
# [7] = 1 μg/mL, selectivity lots n = 6, LC-MS/MS (also in Table 4)
# Sequence of HasA (G3XD33 entry or part of it): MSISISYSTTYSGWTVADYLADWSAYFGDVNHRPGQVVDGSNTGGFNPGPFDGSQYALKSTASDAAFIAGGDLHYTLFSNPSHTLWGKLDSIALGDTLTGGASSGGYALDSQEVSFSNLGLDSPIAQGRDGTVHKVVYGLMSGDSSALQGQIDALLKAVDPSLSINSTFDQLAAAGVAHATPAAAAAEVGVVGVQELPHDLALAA
SMILES,Kd (HasA) [nM],"K2EDTA KRBC/PL [1, 2]","Heparin KRBC/PL [1, 3]","K2EDTA KRBC/PL [1, 4]","Heparin KRBC/PL [1, 5]","K2EDTA KRBC/PL [1, 6]","Heparin KRBC/PL [1, 7]","ICP-MS calculated KRBC/PL ([1]; 1 μg/mL, 2 hours)","LC-MS/MS calculated KRBC/PL ([1]; 1 μg/mL, 2 hours)","KRBC/PL ([1]; 2 hours, ICP-MS, HQC (1 μg/mL))","KRBC/PL ([1]; 2 hours, ICP-MS, LQC (100 ng/mL))","KRBC/PL ([1]; 2 hours, LC-MS/MS, HQC (1 μg/mL))","KRBC/PL ([1]; 2 hours, LC-MS/MS, LQC (100 ng/mL))"
Oc1cc(OCCN2CCOCC2)ccc1C=Nc1ccccc1N=Cc1ccc(OCCN2CCOCC2)cc1O.[Ga+3] [GaSal-3],1500 ± 300,0.28 ± 0.08,1.08 ± 0.28,0.28 ± 0.04,1.03 ± 0.24,,,,,,,,
COCCOc1ccc(/C=N/c2ccccc2N=C(C)c2ccccc2O)c(O)c1.[Ga+3] [GaSal-14],2840 ± 120,0.69 ± 0.10,0.55 ± 0.07,1.65 ± 0.18,1.86 ± 0.36,0.08 ± 0.01,0.33 ± 0.04,0.34 ± 0.02,0.33 ± 0.04,,,,
COCCOCCOc1ccc(C=Nc2ccccc2N=Cc2ccc(OCCOCCOC)cc2O)c(O)c1.[Ga+3] [GaSal-5],2500 ± 1200,0.63 ± 0.36,1.91 ± 0.57,,1.34 ± 0.17,0.16 ± 0.03,0.56 ± 0.03,0.36 ± 0.03,0.56 ± 0.03,0.572 ± 0.008,0.632 ± 0.080,0.043 ± 0.017,0.070 ± 0.007
COCCOc1ccc(/C=N/c2ccccc2/N=C/c2ccc(OCCOC)cc2O)c(O)c1.[Ga+3] [GaSal-13],960 ± 140,0.55 ± 0.35,0.47 ± 0.22,0.08 ± 0.04,0.59 ± 0.18,,,0.48 ± 0.04,0.42 ± 0.03,,,,
O=C(O)CCOc1ccc(C=Nc2ccccc2N=Cc2ccc(OCCC(=O)O)cc2O)c(O)c1.[Ga+3] [GaSal-4],1100 ± 100,2288 ± 94,3422 ± 435,9220 ± 484,8098 ± 1102,,,,,,,,
"Oc1ccccc1/C=N/c1ccccc1/N=C/c1ccccc1O.[Ga+3] [GaSal, gallium salophen]",800 ± 100,0.22 ± 0.02,0.61 ± 0.42,0.26 ± 0.03,0.57 ± 0.19,0.58 ± 0.02,0.45 ± 0.03,0.89 ± 0.04,0.45 ± 0.03,,,,
